≈ marks a conversion by molar mass, not a printed value. Like-named read-outs stand apart in the source and are kept apart here.
Experiments:
Assay type in all cases: cell-based
[1] = system: Staph. aureus 193; assay: antimicrobial activity (MIC), Table I; conditions: Staphylococcus aureus; Staph. aureus 193; read-out: MIC
[2] = system: Staph. aureus 209 P; assay: antimicrobial activity (MIC), Table I; conditions: Staphylococcus aureus; Staph. aureus 209 P; read-out: MIC
[3] = system: Staph. aureus MS 9861; assay: antimicrobial activity (MIC), Table I; conditions: Staphylococcus aureus, MS9861; Staph. aureus MS 9861; read-out: MIC
[4] = system: Sarcina lutea PCI 1001; assay: antimicrobial activity (MIC), Table I; conditions: Micrococcus luteus, PCI1001; Sarcina lutea PCI 1001; read-out: MIC
[5] = system: B. subtilis NRRL B-558; assay: antimicrobial activity (MIC), Table I; conditions: Bacillus subtilis, NRRLB558; B. subtilis NRRL B-558; read-out: MIC
[6] = system: Coryn. bovis 1810; assay: antimicrobial activity (MIC), Table I; conditions: Corynebacterium bovis; Coryn. bovis 1810; read-out: MIC
[7] = system: E. coli NIHJ; assay: antimicrobial activity (MIC), Table I; conditions: Escherichia coli; E. coli NIHJ; read-out: MIC
[8] = system: E. coli K-12; assay: antimicrobial activity (MIC), Table I; conditions: Escherichia coli, K12; E. coli K-12; read-out: MIC
[9] = system: E. coli K-12 R-5; assay: antimicrobial activity (MIC), Table I; conditions: Escherichia coli, K12R5; E. coli K-12 R-5; read-out: MIC
[10] = system: E. coli K-12 ML 1410; assay: antimicrobial activity (MIC), Table I; conditions: Escherichia coli, K12ML1410
[11] = system: E. coli K-12 LA 290 R 55; assay: antimicrobial activity (MIC), Table I; conditions: Escherichia coli
[12] = system: Kleb. pneumoniae PCI 602; assay: antimicrobial activity (MIC), Table I; conditions: Klebsiella pneumoniae, PCI602; Kleb. pneumoniae PCI 602; read-out: MIC
[13] = system: Shigella dysenteriae JS 11910; assay: antimicrobial activity (MIC), Table I; conditions: JS11910
[14] = system: Sal. enteritidis 1891; assay: antimicrobial activity (MIC), Table I; conditions: Salmonella enterica; Sal. enteritidis 1891; read-out: MIC
[15] = system: Pro. vulgaris OX-19; assay: antimicrobial activity (MIC), Table I; conditions: Proteus vulgaris, OX19
[16] = system: B. subtilis ATCC 6633; assay: antimicrobial activity (MIC), Table II; conditions: Bacillus subtilis, ATCC6633
[17] = system: B. cereus; assay: antimicrobial activity (MIC), Table II; conditions: Bacillus cereus
[18] = system: Staph. aureus ATCC 6538P; assay: antimicrobial activity (MIC), Table II; conditions: Staphylococcus aureus, ATCC6538P; Staph. aureus ATCC 6538P; read-out: MIC
[19] = system: Staph. aureus KC-11; assay: antimicrobial activity (MIC), Table II; conditions: Staphylococcus aureus, KC11; Staph. aureus KC-11; read-out: MIC
[20] = system: Staph. aureus 226; assay: antimicrobial activity (MIC), Table II; conditions: Staphylococcus aureus; Staph. aureus 226; read-out: MIC
[21] = system: Staph. epidermidis IID 886; assay: antimicrobial activity (MIC), Table II; conditions: Staphylococcus epidermidis, IID886
[22] = E. coli K-12 ML 1410, read-out: MIC

CCC1OC(=O)CC(O)C(C)C(OC2OC(C)CC(N(C)C)C2O)C(CC=O)CC(C)C(=O)C=CC(C)=CC1CN1CCCCCC1 (centres unmarked) [Example 18, 23,4'-dideoxy-23-hexamethyleneiminomycaminosyl tylonolide]
MIC [1]: < 0.2 µg/mL | MIC [2]: < 0.2 µg/mL | MIC [3]: 0.78 µg/mL (≈ 1.18 µM) | MIC [4]: < 0.2 µg/mL | MIC [5]: < 0.2 µg/mL | MIC [6]: < 0.2 µg/mL | MIC [7]: 0.39 µg/mL (≈ 0.588 µM) | MIC [8]: 0.78 µg/mL (≈ 1.18 µM) | MIC [9]: 0.78 µg/mL (≈ 1.18 µM) | MIC [10, 22]: 0.78 µg/mL (≈ 1.18 µM) | MIC [11]: 0.78 µg/mL (≈ 1.18 µM) | MIC [12]: 0.39 µg/mL (≈ 0.588 µM) | MIC [13]: < 0.2 µg/mL | MIC [14]: < 0.2 µg/mL | MIC ([15]; Pro. vulgaris OX-19, read-out: MIC): 0.78 µg/mL (≈ 1.18 µM)

CCC1OC(=O)CC(O)C(C)C(OC2OC(C)CC(N(C)C)C2O)C(CC=O)CC(C)C(=O)C=CC(C)=CC1CN1CCCCCCC1 (centres unmarked) [Example 19, 23,4'-dideoxy-23-heptamethyleneiminomycaminosyl tylonolide]
MIC [1]: 0.2 µg/mL (≈ 0.295 µM) | MIC [2]: < 0.2 µg/mL | MIC [3]: 0.78 µg/mL (≈ 1.15 µM) | MIC [4]: < 0.2 µg/mL | MIC [5]: 0.39 µg/mL (≈ 0.576 µM) | MIC [6]: < 0.2 µg/mL | MIC [7]: 0.39 µg/mL (≈ 0.576 µM) | MIC [8]: 0.78 µg/mL (≈ 1.15 µM) | MIC [9]: 0.78 µg/mL (≈ 1.15 µM) | MIC [10, 22]: 0.78 µg/mL (≈ 1.15 µM) | MIC [11]: 0.39 µg/mL (≈ 0.576 µM) | MIC [12]: 0.2 µg/mL (≈ 0.295 µM) | MIC [13]: < 0.2 µg/mL | MIC [14]: < 0.2 µg/mL | MIC [15]: 0.39 µg/mL (≈ 0.576 µM)

CC[C@H]1OC(=O)C[C@@H](O)[C@H](C)[C@@H](O[C@@H]2O[C@H](C)[C@@H](O[C@H]3C[C@@](C)(O)[C@@H](O)[C@H](C)O3)[C@H](N(C)C)[C@H]2O)[C@@H](CC=O)C[C@@H](C)C(=O)/C=C/C(C)=C/[C@@H]1CO[C@@H]1O[C@H](C)[C@@H](O)[C@@H](OC)[C@H]1OC [Tylosin]
MIC [1]: 0.78 µg/mL (≈ 0.851 µM) | MIC [4]: < 0.2 µg/mL | MIC [6]: 0.2 µg/mL (≈ 0.218 µM) | MIC [8]: > 100 µg/mL | MIC [9]: > 100 µg/mL | MIC [10]: > 100 µg/mL | MIC [11]: > 100 µg/mL | MIC [15]: > 100 µg/mL | MIC [16]: 0.78 µg/mL (≈ 0.851 µM) | MIC [17]: 0.78 µg/mL (≈ 0.851 µM) | MIC [18]: 1.56 µg/mL (≈ 1.7 µM) | MIC [19]: 1.56 µg/mL (≈ 1.7 µM) | MIC [20]: 1.56 µg/mL (≈ 1.7 µM) | MIC [21]: 1.56 µg/mL (≈ 1.7 µM)
